Patent US20230102488A1, “COMPOUNDS AND THEIR USE FOR THE TREATMENT OF ALPHA1-ANTITRYPSIN DEFICIENCY” (Z Factor Limited, priority 2019, published 2023)

molecular target: T1, Z A1AT (Homo sapiens, UniProt P01009, E366K); test: A1AT cell secretion assay using HEK-Z cells (A1AT ELISA of supernatants); format: cell-based; settings: 48 h, read-out: Median A1AT % increase over vehicle at 300 nM
T1 construct: expressed in transfected cells; host or cells: HEK-Z cells (human embryonic kidney cell line)
Protocol: HEK-Z cells, a human embryonic kidney cell line stably transfected with the human Z A1AT gene, were plated into 96 well plates (3.0×10^5 cells/ml with 200 μl of media/well) overnight at 37° C. in a humidified atmosphere containing 5% CO2. Following incubation cells were washed with 200 μl serum-free media three times and media was replaced with treatments in quadruplicate using serum free media containing either vehicle, 10 μM suberanilohydroxamic acid (SAHA) or a compound of the invention ([…]) for 48 h in a 37° C. incubator in a final volume of 200 μl. At the end of the incubation step the supernatants were removed from the wells, centrifuged at 1000×g at 4° C. for 10 min and were assayed for human A1AT levels by ELISA (Human Serpin A1/α1-antitrypsin duo set ELISA, R& D Systems, DY1268) per manufacturer's instructions.
Briefly, a 96 well plate was coated with human A1AT capture antibody overnight at room temperature (1:180 dilution from stock, 100 μl final volume/well). The capture antibody was then removed and wells washed three times with 300 μl wash buffer (0.05% Tween 20 in PBS) and then 200 μl reagent diluent ([…]) was incubated in each well for 1 h at room temperature. Diluted samples, standards (125, 250, 500, 1000, 2000, 4000 and 8000 pg/ml A1AT) or blanks were then added to each well in duplicate and the plates were covered with a plate sealer and left at room temperature for 2 h. At the end of the sample incubation step, samples were removed and all wells washed as previously and 100 μl detection antibody (1:180 dilution from stock) was added to each well and incubated for a further 2 h at room temperature. Following incubation with detection antibody, supernatant was removed and wells were washed as previously and 100 μl streptavidin-HRP solution (1:200 dilution from stock) was added to each well for 20 min in the dark. After which, 50 μl stop solution (2M H2SO4) was added and optical density (OD) of each well was read at 450 nm with 570 nm blank subtracted from each well using a microplate reader. A 4 parameter logistic curve was constructed using GraphPad Prism 7 and A1AT concentrations were determined in each sample by interpolation from a standard curve and multiplying by the appropriate dilution factor.

T1 sequence (P01009 25-418 E366K): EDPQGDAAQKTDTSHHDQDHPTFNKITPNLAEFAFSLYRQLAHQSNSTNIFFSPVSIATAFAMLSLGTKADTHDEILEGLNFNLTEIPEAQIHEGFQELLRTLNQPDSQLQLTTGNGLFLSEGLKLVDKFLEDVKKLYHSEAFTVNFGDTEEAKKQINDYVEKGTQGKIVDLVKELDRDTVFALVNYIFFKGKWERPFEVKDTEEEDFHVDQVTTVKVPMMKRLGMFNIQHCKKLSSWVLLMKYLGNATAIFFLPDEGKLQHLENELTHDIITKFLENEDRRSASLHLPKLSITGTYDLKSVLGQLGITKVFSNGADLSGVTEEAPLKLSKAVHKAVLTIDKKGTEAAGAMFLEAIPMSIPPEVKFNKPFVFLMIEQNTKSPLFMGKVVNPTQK

| SMILES | activation at 0.3 µM [%] |
| --- | --- |
| CC(C)N(C)C(=O)c1ccc(Cn2cnc3ccccc3c2=O)cc1 [Example 15, N-isopropyl-N-methyl-4-((4-oxoquinazolin-3(4H)-yl)methyl)benzamide] | 190 |
| CNC(=O)c1ccc(Cn2cnc3ccccc3c2=O)cc1 [Example 5, N-Methyl-4-((4-oxoquinazolin-3(4H)-yl)methyl)benzamide] | 180 |
| CN(Cc1ccccc1)C(=O)c1ccc(Cn2cnc3ccccc3c2=O)cc1 [Example 16, N-benzyl-N-methyl-4-((4-oxoquinazolin-3(4H)-yl)methyl)benzamide] | 160 |
| CN(CC(F)(F)F)C(=O)c1ccc(Cn2cnc3ccccc3c2=O)cc1 [Example 17, N-methyl-4-((4-oxoquinazolin-3(4H)-yl)methyl)-N-(2,2,2-trifluoroethyl)benzamide] | 170 |

same assay, conditions: HEK-Z cells, 300 nM, 48 h, secreted human A1AT in supernatant by ELISA; read-out: Median A1AT % increase over vehicle at 300 nM

| SMILES | activation at 0.3 µM [%] |
| --- | --- |
| O=C(c1ccc(Cn2cnccc2=O)cc1)N1CCOCC1 [Example 3, 3-(4-(Morpholine-4-carbonyl)benzyl)pyrimidin-4(3H)-one] | 280 |
| O=C(NCC(F)(F)F)c1ccc(Cn2cnccc2=O)cc1 [Example 14, 4-((6-oxopyrimidin-1(6H)-yl)methyl)-N-(2,2,2-trifluoroethyl)benzamide] | 180 |
| O=C(c1ccc(Cn2cnccc2=O)cc1)N1CCCC1 [Example 2, 3-(4-(Pyrrolidine-1-carbonyl)benzyl)pyrimidin-4(3H)-one] | 350 |
| NC(=O)c1ccc(Cn2cnccc2=O)cc1 [Example 10, 4-((6-oxopyrimidin-1(6H)-yl)methyl)benzamide] | 260 |
| Cc1ncn(Cc2ccc(C(=O)N(C)C)cc2)c(=O)c1C [Example 18, 4-((4,5-dimethyl-6-oxopyrimidin-1(6H)-yl)methyl)-N,N-dimethylbenzamide] | 170 |
| CN(Cc1ccccc1)C(=O)c1ccc(Cn2cnccc2=O)cc1 [Example 8, N-benzyl-N-methyl-4-((6-oxopyrimidin-1(6H)-yl)methyl)benzamide] | 150 |
| CN1CCN(C(=O)c2ccc(Cn3cnccc3=O)cc2)CC1 [Example 4, 3-(4-(4-Methylpiperazine-1-carbonyl)benzyl)pyrimidin-4(3H)-one] | 390 |
| CC(C)N(C)C(=O)c1ccc(Cn2cnccc2=O)cc1 [Example 7, N-isopropyl-N-methyl-4-((6-oxopyrimidin-1(6H)-yl)methyl)benzamide] | 160 |
| CCN(CC)C(=O)c1ccc(Cn2cnccc2=O)cc1 [Example 11, N,N-diethyl-4-((6-oxopyrimidin-1(6H)-yl)methyl)benzamide] | 230 |
| O=C(NCc1ccc(F)cc1)c1ccc(Cn2cnccc2=O)cc1 [Example 13, N-(4-fluorobenzyl)-4-((6-oxopyrimidin-1(6H)-yl)methyl)benzamide] | 190 |
| CC(C)NC(=O)c1ccc(Cn2cnccc2=O)cc1 [Example 12, N-isopropyl-4-((6-oxopyrimidin-1(6H)-yl)methyl)benzamide] | 210 |
| CCN(C)C(=O)c1ccc(Cn2cnccc2=O)cc1 [Example 1, N-Ethyl-N-methyl-4-((6-oxopyrimidin-1(6H)-yl)methyl)benzamide] | 330 |
| CNC(=O)c1ccc(Cn2cnc3ccc(Cl)cc3c2=O)cc1 [Example 6, 4-((6-chloro-4-oxoquinazolin-3(4H)-yl)methyl)-N-methylbenzamide] | 200 |
| CN(CC(F)(F)F)C(=O)c1ccc(Cn2cnccc2=O)cc1 [Example 9, N-methyl-4-((6-oxopyrimidin-1(6H)-yl)methyl)-N-(2,2,2-trifluoroethyl)benzamide] | 170 |
